What was measured:
Bc YpdA (Bdr) = molecular target: T1, Bc YpdA (Bdr) (Bacillus cereus, UniProt Q81FS4); assay: NADPH consumption at […] nm; format: biochemical; settings: anaerobic
T1 construct: gene BC_1495; expressed and purified; FAD-containing; biological homotetramer; tag details only in supplement
T1 sequence (Q81FS4 1-326): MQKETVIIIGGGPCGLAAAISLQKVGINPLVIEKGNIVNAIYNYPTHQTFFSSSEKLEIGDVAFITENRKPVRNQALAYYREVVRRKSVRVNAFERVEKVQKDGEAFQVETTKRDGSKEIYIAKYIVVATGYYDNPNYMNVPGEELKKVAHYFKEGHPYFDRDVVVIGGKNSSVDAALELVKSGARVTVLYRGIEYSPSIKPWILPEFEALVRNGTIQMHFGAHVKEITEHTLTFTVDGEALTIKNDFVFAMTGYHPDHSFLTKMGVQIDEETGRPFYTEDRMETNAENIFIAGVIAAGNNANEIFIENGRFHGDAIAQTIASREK

Sa YpdA (Bdr) [1] = molecular target: T2, Sa YpdA (Bdr) (Staphylococcus aureus, UniProt A0A0H2WWS2); assay: NADPH consumption at […] nm; format: biochemical; settings: NADPH as co-substrate; anaerobic
T2 construct: gene SACOL1520; expressed and purified; FAD-containing; biological homotetramer; tag details only in supplement
T2 sequence (A0A0H2WWS2 1-328): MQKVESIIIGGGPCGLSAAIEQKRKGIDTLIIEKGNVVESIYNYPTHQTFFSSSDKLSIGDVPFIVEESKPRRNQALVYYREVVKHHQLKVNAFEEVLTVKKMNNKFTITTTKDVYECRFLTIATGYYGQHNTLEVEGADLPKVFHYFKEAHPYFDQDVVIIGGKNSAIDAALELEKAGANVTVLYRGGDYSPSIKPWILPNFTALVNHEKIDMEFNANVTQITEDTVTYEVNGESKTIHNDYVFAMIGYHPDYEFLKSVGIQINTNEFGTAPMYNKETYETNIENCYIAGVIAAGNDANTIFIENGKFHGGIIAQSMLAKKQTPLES

Sa YpdA (Bdr) [2] = molecular target: T2, Sa YpdA (Bdr); assay: X-ray crystallography; format: binding

SMILES: N[C@@H](CSSC[C@H](N)C(=O)N[C@H]1[C@@H](O[C@@H](CC(=O)O)C(=O)O)O[C@H](CO)[C@@H](O)[C@@H]1O)C(=O)N[C@H]1[C@@H](O[C@@H](CC(=O)O)C(=O)O)O[C@H](CO)[C@@H](O)[C@@H]1O [BSSB]
- NADPH consumption at 340 nm (Bc YpdA (Bdr); NADPH as co-substrate): YpdAs from Bc and Sa are both able to reduce BSSB
- NADPH consumption at 340 nm (Sa YpdA (Bdr) [1]): YpdAs from Bc and Sa are both able to reduce BSSB

SMILES: Cc1cc2nc3c(=O)[nH]c(=O)nc-3n(C[C@H](O)[C@H](O)[C@H](O)COP(=O)(O)OP(=O)(O)OC[C@H]3O[C@@H](n4cnc5c(N)ncnc54)[C@H](O)[C@@H]3O)c2cc1C [FAD]
- X-ray crystallography (Sa YpdA (Bdr) [2]; bound cofactor, 2.9 and 3.1 A resolution): Monomer structure alignment of Bc and Sa YpdA, displaying the NADPH and FAD binding domains

SMILES: NC(=O)C1=CN([C@@H]2O[C@H](COP(=O)(O)OP(=O)(O)OC[C@H]3O[C@@H](n4cnc5c(N)ncnc54)[C@H](OP(=O)(O)O)[C@@H]3O)[C@@H](O)[C@H]2O)C=CC1 [NADPH]
- NADPH consumption at 340 nm (Bc YpdA (Bdr); BSSB as co-substrate): both Sa and Bc YpdAs can reduce BSSB with a rate of consumption of NADPH
- X-ray crystallography (Sa YpdA (Bdr) [2]; NADPH not added, co-purified, bound in chains C, D and F, FAD present): we observed in both Sa YpdA structures electron density for bound NADPH

Reference: paper PMC7774306, “The Crystal Structures of Bacillithiol Disulfide Reductase Bdr (YpdA) Provide Structural and Functional Insight into a New Type of FAD-Containing NADPH-Dependent Oxidoreductase” (Biochemistry, 2020)
